Assay results: patent publication US20240324597A1, “Method For Spot-Treatment Application Against Weeds” (Monsanto Technology LLC, priority 2021, published 2024)

Columns and labels:
Format in all cases: in vivo
[1] = tested on: Pepper plants (Capsicum frutescens L., CPSFR); test: Crop injury after shielded spray around transplanted pepper plants (Example 3, Table 7)
Text: In a third set of trials pepper plants (Capsicum frutescens L., CPSFR) were manually transplanted at a growth stage of BBCH 13 in a field and grown until they reached BBCH growth stage of 14 or roughly 10 cm average crop height.
Application was made using a compressed air sprayer and a handheld 1 nozzle spray lance. The nozzle was shielded by a spray shield to prevent unintended spray drift during application. The application was made at damp soil conditions and calm wind around each single pepper plant. The crop plants were shielded from spray drift during application and spray slurry reached only the soil and weed cover surrounding the pepper plants.
(§1) […] The crop injury was rated were visually on a percentage scale in relation to the untreated control (100%=all plants dead; 50%=green plant biomass reduced by 50%, and 0%=no discernible difference=like control plot).

Soybeans (GLXMA) [2] = test: Crop injury after spray with crop rows covered by rain gutters, soybeans (Example 2, Table 6); settings: MSO + AMS
Text: In a second set of trials Soybeans (GLXMA) were planted in a standard planting system with 30 in row spacing and grown until they reached a BBCH growth stage of 11-12 or roughly 12 cm average height.
Application was made using a CO2 pressurized backpack sprayer and a handheld 6 nozzle boom, operating at 2.5 bar. The application was made at damp soil conditions and a windspeed of 0-15 km/h. The crop rows were covered during the actual spray application using upside down metal rain gutters (10 cm×10 cm depth×width) covering the crop and the soil below of about 5 cm on either side from the crop row center. All treatments included 1.5 L of a methylated seed oil (MSO) and 2 Kg/ha Ammonium sulfate (AMS) salt source and were mixed into 1 L fraction of an equivalent to 200 L/ha spray solution.
as §1

Soybeans (GLXMA) [3] = test: Crop injury after hooded band spot-spray between crop rows, soybeans (Example 1, Table 5); settings: 1440 g a.i./ha, MSO + AMS
Text: Sunflower (HELAN), Corn (ZEAMD) and Soybeans (GLXMA) were planted in a standard planting system with 30 in row spacing and grown until they reached a BBCH growth stage of 16-18; 12-13 and 14, respectively.
Application was made using a CO2 pressurized backpack sprayer and a handheld two nozzle boom, operating at 2.75 bar. Each of the nozzles (TeeJet Extended Air Induction nozzle 0015) was equipped with a plastic hood covering a 38 cm band left and right of each crop row and preventing unintended spray drift outside the band. The spray solution covered a band of roughly 38 cm on either side of the crop row with an average distance 8 cm to the row center and 2-10 cm distance between soil surface and lower end of the spray shield. The application was made at damp soil conditions and a windspeed of 0-10 km/h. All treatments included 1.5 L of an methylated seed oil (MSO) and 2 Kg/ha Ammonium sulfate (AMS) salt source and were mixed into 1 L fraction of an equivalent to 187 L/ha spray solution.
The crop injury assessments were conducted as visual assessments at 15, 28 and 45 days after application (DAA) in case of Sunflower and soybeans and at 14 and 27 DAA in case of com. Also in case of Table 5 assessments were done in soybeans at 15, 25 and 44 DAA. The crop injury was rated were visually on a percentage scale in relation to the untreated control (100%=all plants dead; 50% =green plant biomass reduced by 50%, and 0%=no discernible difference=like control plot).

Measured: Crop injury [% untreated]

C=CC1(C(=O)NC2COC(C(=O)OC)C2)CC(c2cc(F)cc(F)c2)=NO1 (mixture of isomers) [A 1.68]
0 % untreated: [1]; 100 g a.i./ha, 5 DAA | [1]; 100 g a.i./ha, 7 DAA | [1]; 100 g a.i./ha, 14 DAA | [1]; 150 g a.i./ha, 5 DAA | [1]; 150 g a.i./ha, 7 DAA | [1]; 150 g a.i./ha, 14 DAA | Soybeans (GLXMA) [2]; 100 g a.i./ha, 7 DAA | Soybeans (GLXMA) [2]; 100 g a.i./ha, 15 DAA | Soybeans (GLXMA) [2]; 100 g a.i./ha, 28 DAA | Soybeans (GLXMA) [2]; 100 g a.i./ha, 45 DAA | Soybeans (GLXMA) [2]; 200 g a.i./ha, 7 DAA | Soybeans (GLXMA) [2]; 200 g a.i./ha, 15 DAA | Soybeans (GLXMA) [2]; 200 g a.i./ha, 28 DAA | Soybeans (GLXMA) [2]; 200 g a.i./ha, 45 DAA

O=C(O)CNCP(=O)(O)O [Glyphosate, glyphosate, reference compound]
0 % untreated: Soybeans (GLXMA) [3]; 15 DAA | Soybeans (GLXMA) [3]; 25 DAA | Soybeans (GLXMA) [3]; 44 DAA | Soybeans (GLXMA) [2]; 1440 g a.i./ha, 7 DAA | Soybeans (GLXMA) [2]; 1440 g a.i./ha, 15 DAA | Soybeans (GLXMA) [2]; 1440 g a.i./ha, 28 DAA | Soybeans (GLXMA) [2]; 1440 g a.i./ha, 45 DAA
